Assay results published in ChEMBL document CHEMBL1201862, “PubChem BioAssay data set” (2004).
Activity calls are given as the source filed them.

Tests used:
Hexokinase HKDC1 = Hexokinase HKDC1 (Homo sapiens, UniProt Q2TB90); assay: HKDC1 hexokinase inhibitors, SAR follow-up, biochemical, set 2 (AID 588355); format: functional
Hexokinase-1 = Hexokinase-1 (Homo sapiens, UniProt P19367); assay: HK1 enzyme inhibition by HKDC1 hits, SAR follow-up, selectivity assay for HKDC1 inhibitor project, biochemical, set 2, resazurin fluorescence coupled readout (AID 588356); format: functional
[1] = biological target: Apoptotic protease-activating factor 1 (Homo sapiens, UniProt O14727); format: functional
HEK293 = assay: inhibitors of LMP1-driven NF-kB reporter, dose response, cell-based, HEK293, luciferase, cherry-pick (AID 588343); format: functional; details: Homo sapiens
Galanin receptor type 3 = biological target: T1, Galanin receptor type 3 (Homo sapiens, UniProt O60755); assay: Fluorescence-based cell-based primary high throughput dose response assay to identify antagonists of the Galanin Receptor 3 (GalR3).; format: functional
T1 sequence (O60755 whole entry): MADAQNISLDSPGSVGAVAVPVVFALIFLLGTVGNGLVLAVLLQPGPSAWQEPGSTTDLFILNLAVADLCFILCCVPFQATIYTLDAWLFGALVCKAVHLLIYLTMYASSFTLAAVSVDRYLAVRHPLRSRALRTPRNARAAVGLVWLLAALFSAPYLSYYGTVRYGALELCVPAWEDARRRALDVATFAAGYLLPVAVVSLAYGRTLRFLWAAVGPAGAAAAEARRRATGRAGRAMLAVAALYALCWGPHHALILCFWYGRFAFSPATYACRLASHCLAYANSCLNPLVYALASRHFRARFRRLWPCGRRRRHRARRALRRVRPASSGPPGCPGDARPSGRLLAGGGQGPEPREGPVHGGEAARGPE

[2] = cytotoxicity in HEK-293T NF-kB-Luc cells, dose response, cytotoxicity control for B/T-cell NF-kB inhibitor project, cell-based, uHTS hits (AID 489019); format: functional;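 also: IC50 reflects cytotoxicity as loss of cell viability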
[3] = biological target: T2, Serine/threonine-protein phosphatase (Candida dubliniensis (strain CD36 / CBS 7987 / NCPF 3949 / NRRLY-17841) (Yeast), UniProt B9W6M3); assay: calcineurin pathway inhibitors in yeast reporter, dose response, S. cerevisiae, CDRE-lacZ, luminescence, secondary (AID 2388); format: functional, cell-based;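 also: yeast reporter cells carrying a calcineurin-responsive lacZ construct stimulated with calcium chloride; luminescent beta-galactosidase reporter signal in whole cells rather than isolated phosphatase activity; potency for inhibition where a drop in reporter signal means calcineurin blockade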
T2 sequence (B9W6M3 whole entry): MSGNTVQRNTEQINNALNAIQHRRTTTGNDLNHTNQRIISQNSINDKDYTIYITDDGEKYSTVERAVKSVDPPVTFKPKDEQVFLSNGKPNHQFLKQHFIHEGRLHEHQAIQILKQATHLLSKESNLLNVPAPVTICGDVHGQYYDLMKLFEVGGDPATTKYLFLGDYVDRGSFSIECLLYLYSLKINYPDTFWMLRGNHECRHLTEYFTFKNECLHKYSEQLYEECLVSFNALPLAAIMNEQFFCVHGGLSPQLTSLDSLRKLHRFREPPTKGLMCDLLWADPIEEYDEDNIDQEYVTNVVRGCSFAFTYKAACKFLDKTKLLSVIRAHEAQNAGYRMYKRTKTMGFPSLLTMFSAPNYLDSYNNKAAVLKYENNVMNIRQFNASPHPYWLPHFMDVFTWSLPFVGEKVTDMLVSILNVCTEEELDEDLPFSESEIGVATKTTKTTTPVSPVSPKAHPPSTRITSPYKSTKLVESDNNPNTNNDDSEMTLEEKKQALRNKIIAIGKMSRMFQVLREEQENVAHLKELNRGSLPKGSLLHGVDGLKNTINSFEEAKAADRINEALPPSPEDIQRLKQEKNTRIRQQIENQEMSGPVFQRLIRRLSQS

[4] = NIH-3T3 fibroblast cytotoxicity, dose response, cytotoxicity control, cell-based, fluorescence, Alamar Blue, secondary assay (AID 2327); format: functional;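 also: NIH-3T3 mouse fibroblasts cultured with fluconazole at 8 µg/mL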
[5] = inhibitors of firefly luciferase expression or activity, dose response, H4 neuroglioma cells, luminescence (AID 1990); format: functional, cell-based
[6] = biological target: ATP-dependent molecular chaperone HSP82 (Candida albicans (strain WO-1) (Yeast), UniProt C4YTQ8); assay: loss of DOC-induced GRE-beta-galactosidase reporter signal, dose response, Hsp90 inhibitor project, S. cerevisiae, luminescence (AID 2400); format: functional, cell-based;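 also: beta-galactosidase luminescence from glucocorticoid response element reporter as proxy for Hsp90 function; inhibitor potency where signal loss means Hsp90 inhibition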
Jurkat = assay: antigen receptor-induced NF-kB inhibitors, dose response, Jurkat, luciferase reporter, luminescence, B- and T-cell (AID 489004); format: functional, cell-based; details: Homo sapiens;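 also: NF-kB luciferase reporter Jurkat cells stimulated with PMA plus ionomycin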
[7] = control 3'UTR Renilla luciferase suppression, dose response, counter-screen for Shn3 inhibitor project, cell-based, Clone20-Shn3RL, cherry-picked (AID 624133); format: functional
[8] = inhibitors of SNCA 5'UTR-driven reporter translation, confirmation, H4 neuroglioma cells, luminescence (AID 1988); format: functional, cell-based
cells = format: functional, cell-based; details: HEK-CNG
[9] = HepG2 cell cytotoxicity, dose response, cytotoxicity control for Shn3 inhibitor project, CellTiter-Glo, cherry-picked (AID 624134); format: functional, cell-based
[10] = biological target: COUP transcription factor 2 (Homo sapiens, UniProt P24468); assay: Luminescence-based cell-based high throughput dose response assay to identify inhibitors of COUP-TFII (NR2F2).; format: functional;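 also: HEK293 cells transiently cotransfected with COUP-TFII expression vector and reporter; luciferase reporter luminescence driven by COUP-TFII from the pX2-168 reporter plasmid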
[11] = Shn3 3'UTR reporter inhibitors, dose response, cell-based, Clone20 osteoblasts, firefly luciferase, cherry-picked (AID 624132); format: functional;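 also: firefly luciferase luminescence from reporter carrying the Shn3 3'UTR in osteoblasts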
[12] = Luminescence Cell-Based Dose Response HTS to Identify Inhibitors of 5'UTR Stem-Loop Driven Prion Protein mRNA Translation in H4 Neuroglioblastoma Cells. [Related pubchem assays: 1827 (Project Summary), 1813 (Primary HTS)]; format: functional
INS1 [13] = assay: beta cell apoptosis inhibitors, cytokine rescue, dose response, luminescence, retest (AID 449756); format: functional, cell-based; details: Rattus norvegicus;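 also: cell death triggered by IL-1 beta plus TNF-alpha plus IFN-gamma mixture; protective hits raise ATP signal compared with cytokine alone wells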
[14] = C. albicans growth with fluconazole, confirmation, fluorescence, retest (AID 2467); format: functional, cell-based
[15] = inhibitors of cytokine-induced nitrite release, dose response, cell-based, Griess absorbance, INS-1E, dry powder, set 3 (AID 488870); format: functional, Rattus norvegicus
INS1 [16] = assay: Glucose-induced Insulin secretion ELISA Measured in Cell-Based System Using Plate Reader - 2061-05_Inhibitor_Dose_DryPowder_Activity. [Related pubchem assays (depositor defined):AID435007]; format: functional; details: Rattus norvegicus
INS1 [17] = assay: protection from cytokine-induced mitochondrial depolarization, dose response, cell-based, INS-1E, JC-1 fluorescence ratio, dry powder (AID 488931); format: functional; details: Rattus norvegicus
INS1 [18] = assay: Primary beta islet insulin ELISA Measured in Cell-Based System Using Plate Reader - 2061-09_Inhibitor_Dose_DryPowder_Activity. [Related pubchem assays (depositor defined):AID435007]; format: functional; details: Rattus norvegicus
INS1 [19] = assay: caspase-3/7 inhibition in cytokine-treated INS-1E, dose response, beta-cell apoptosis inhibitor project, cell-based, caspase luminescence, dry powder (AID 488848); format: functional; details: Rattus norvegicus
[20] = Primary Beta Cell Apoptosis assay Measured in Cell-Based System Using Plate Reader - 2061-07_Inhibitor_Dose_DryPowder_Activity_Set2. [Related pubchem assays (depositor defined):AID435007]; format: functional; details: Homo sapiens
[21] = biological target: Delta-type opioid receptor (Homo sapiens, UniProt P41143); assay: Counterscreen for agonists of heterodimerization of the mu 1 (OPRM1) and delta 1 (OPRD1) opioid receptors: Luminescence-based cell-based high throughput dose response assay to identify agonists of OPRD1 homodimerization. [Related pubchem assays (depositor defined):AID504326, AID504355, AID504692, AID504904, AID504905]; format: functional
Vero [22] = assay: cells; format: functional; details: Chlorocebus sabaeus
[23] = biological target: 5-hydroxytryptamine receptor 5A (Homo sapiens, UniProt P47898); assay: Counterscreen for agonists of OPRM1-OPRD1 heterodimerization: luminescence-based cell-based high throughput dose response assay to identify agonists of 5-hydroxytryptamine (serotonin) 5A receptor (HTR5A). [Related pubchem assays (depositor defined):AID504326, AID504355, AID504692, AID504904, AID504905]; format: functional
Vero [24] = assay: cells; format: functional, cell-based; details: Chlorocebus sabaeus
Mu-type opioid receptor = Mu-type opioid receptor (Homo sapiens, UniProt P35372); assay: Counterscreen for agonists of heterodimerization of the mu 1 (OPRM1) and delta 1 (OPRD1) opioid receptors: Luminescence-based cell-based high throughput dose response assay to identify agonists of OPRM1 homodimerization.; format: functional;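 also: U2OS cells expressing OPRM1 and beta-arrestin as split beta-galactosidase partners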
[25] = biological target: Opioid receptors; mu & delta (Homo sapiens, UniProt P41143+P35372); assay: agonists of MOR-DOR heterodimerization, dose response, cell-based, luminescence (AID 588407); format: functional

Sequence of Hexokinase-1 (P19367 whole entry): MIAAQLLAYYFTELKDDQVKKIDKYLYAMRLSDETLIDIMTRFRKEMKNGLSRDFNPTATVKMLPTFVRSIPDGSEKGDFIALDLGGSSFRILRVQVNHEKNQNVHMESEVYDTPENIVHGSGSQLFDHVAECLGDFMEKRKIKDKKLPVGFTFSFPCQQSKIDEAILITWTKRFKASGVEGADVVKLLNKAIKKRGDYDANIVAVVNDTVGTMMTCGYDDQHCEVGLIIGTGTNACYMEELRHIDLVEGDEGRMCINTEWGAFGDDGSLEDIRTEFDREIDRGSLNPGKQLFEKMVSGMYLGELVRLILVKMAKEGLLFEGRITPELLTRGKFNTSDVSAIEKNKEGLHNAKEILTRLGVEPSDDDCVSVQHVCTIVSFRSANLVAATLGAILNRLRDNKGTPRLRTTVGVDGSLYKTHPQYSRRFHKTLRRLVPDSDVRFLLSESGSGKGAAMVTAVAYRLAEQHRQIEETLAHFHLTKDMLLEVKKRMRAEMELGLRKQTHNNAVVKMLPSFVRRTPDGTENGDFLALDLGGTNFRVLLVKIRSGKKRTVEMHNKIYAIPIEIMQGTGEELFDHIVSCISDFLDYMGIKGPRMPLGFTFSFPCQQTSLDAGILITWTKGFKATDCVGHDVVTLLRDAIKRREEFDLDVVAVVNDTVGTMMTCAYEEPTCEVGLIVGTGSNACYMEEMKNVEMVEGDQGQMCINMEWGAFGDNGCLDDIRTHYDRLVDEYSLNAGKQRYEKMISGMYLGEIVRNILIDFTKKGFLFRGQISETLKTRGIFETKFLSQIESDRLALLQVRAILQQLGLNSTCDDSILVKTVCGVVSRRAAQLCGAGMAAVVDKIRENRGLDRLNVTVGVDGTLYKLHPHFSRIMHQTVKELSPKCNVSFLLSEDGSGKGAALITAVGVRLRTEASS
Sequence of COUP transcription factor 2 (P24468 whole entry): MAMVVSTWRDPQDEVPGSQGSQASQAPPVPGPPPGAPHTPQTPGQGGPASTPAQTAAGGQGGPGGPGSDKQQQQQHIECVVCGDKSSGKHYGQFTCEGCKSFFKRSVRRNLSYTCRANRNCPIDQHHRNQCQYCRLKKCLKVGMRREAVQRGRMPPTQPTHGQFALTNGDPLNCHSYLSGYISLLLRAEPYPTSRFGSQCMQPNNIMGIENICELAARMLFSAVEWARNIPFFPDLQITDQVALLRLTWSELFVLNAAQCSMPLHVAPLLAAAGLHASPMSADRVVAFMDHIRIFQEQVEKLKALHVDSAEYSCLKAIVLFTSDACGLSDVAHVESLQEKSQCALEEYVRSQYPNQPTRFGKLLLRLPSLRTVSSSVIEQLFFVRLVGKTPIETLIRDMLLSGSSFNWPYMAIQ
Sequence of Hexokinase HKDC1 (Q2TB90 whole entry): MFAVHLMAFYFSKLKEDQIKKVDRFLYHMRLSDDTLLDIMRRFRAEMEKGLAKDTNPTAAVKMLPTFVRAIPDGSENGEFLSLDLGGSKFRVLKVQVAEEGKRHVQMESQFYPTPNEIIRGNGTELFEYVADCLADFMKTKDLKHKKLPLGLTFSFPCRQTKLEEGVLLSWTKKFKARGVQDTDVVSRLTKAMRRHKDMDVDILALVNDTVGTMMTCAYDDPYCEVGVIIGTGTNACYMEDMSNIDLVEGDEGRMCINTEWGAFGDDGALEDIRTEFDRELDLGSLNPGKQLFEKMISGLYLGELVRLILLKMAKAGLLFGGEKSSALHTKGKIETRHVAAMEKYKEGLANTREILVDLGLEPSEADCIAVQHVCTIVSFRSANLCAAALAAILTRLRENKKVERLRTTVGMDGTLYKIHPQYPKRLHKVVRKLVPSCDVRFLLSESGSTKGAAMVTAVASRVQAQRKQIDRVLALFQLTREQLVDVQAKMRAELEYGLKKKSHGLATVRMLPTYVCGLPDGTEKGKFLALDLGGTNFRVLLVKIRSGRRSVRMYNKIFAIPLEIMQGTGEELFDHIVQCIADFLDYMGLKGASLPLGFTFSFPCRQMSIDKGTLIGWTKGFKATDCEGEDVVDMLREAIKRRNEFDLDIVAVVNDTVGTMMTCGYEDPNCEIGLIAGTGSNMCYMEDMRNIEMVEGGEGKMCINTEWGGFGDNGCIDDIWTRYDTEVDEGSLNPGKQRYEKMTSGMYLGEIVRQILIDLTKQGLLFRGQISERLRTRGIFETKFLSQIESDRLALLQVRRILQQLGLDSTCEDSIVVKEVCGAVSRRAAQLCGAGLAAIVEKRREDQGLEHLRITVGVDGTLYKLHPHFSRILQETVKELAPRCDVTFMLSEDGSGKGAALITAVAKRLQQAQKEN
Sequence of Apoptotic protease-activating factor 1 (O14727 whole entry): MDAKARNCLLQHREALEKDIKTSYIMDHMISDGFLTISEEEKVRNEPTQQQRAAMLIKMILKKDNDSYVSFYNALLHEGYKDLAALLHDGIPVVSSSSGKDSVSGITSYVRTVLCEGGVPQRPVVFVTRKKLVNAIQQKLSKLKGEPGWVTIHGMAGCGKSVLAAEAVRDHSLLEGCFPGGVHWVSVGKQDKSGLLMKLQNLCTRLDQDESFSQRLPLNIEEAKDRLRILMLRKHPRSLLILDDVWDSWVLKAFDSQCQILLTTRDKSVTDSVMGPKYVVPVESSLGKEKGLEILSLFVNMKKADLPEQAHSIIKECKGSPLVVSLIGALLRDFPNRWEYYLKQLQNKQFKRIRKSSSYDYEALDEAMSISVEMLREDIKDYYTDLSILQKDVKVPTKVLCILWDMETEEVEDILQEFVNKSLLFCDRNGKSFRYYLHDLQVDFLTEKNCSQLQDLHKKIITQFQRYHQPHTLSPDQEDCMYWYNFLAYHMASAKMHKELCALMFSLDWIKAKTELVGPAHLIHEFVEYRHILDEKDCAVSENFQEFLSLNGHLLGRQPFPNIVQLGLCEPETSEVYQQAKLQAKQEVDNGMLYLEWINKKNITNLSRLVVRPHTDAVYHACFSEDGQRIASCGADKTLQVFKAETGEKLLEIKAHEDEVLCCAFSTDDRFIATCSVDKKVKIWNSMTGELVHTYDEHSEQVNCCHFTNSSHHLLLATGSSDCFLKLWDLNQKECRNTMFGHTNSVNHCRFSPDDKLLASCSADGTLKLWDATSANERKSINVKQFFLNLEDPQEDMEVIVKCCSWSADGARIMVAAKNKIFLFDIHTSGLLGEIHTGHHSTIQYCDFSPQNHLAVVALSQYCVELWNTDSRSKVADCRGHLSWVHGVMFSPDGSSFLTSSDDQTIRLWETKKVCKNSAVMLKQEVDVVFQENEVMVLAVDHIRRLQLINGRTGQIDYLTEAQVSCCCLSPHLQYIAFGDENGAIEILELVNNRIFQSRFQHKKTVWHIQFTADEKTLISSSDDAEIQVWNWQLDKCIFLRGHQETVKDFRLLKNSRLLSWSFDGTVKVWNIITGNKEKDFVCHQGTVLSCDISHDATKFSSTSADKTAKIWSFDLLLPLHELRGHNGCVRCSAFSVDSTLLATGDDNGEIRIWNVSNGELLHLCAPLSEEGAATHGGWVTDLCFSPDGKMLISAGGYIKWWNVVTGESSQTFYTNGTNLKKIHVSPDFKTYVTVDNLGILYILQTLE
Sequence of Mu-type opioid receptor (P35372 whole entry): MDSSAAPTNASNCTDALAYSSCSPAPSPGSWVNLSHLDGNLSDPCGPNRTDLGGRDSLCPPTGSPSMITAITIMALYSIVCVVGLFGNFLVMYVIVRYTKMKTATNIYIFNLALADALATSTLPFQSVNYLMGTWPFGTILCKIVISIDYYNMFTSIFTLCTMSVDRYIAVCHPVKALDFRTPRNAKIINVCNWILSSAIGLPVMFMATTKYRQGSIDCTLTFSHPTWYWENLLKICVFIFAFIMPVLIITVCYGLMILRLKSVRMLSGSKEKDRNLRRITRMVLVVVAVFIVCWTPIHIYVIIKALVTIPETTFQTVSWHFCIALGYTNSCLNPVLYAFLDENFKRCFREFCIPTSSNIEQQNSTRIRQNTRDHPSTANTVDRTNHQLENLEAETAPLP
Sequence of 5-hydroxytryptamine receptor 5A (P47898 whole entry): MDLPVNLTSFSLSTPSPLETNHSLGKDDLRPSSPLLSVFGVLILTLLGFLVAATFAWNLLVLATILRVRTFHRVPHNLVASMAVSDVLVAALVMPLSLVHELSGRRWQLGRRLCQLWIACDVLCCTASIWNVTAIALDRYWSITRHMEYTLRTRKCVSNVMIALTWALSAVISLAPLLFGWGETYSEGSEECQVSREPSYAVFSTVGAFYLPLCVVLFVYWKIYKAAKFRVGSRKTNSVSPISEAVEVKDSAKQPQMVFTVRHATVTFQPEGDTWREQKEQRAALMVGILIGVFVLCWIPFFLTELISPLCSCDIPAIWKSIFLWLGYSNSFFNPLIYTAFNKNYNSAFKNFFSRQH
Sequence of ATP-dependent molecular chaperone HSP82 (C4YTQ8 whole entry): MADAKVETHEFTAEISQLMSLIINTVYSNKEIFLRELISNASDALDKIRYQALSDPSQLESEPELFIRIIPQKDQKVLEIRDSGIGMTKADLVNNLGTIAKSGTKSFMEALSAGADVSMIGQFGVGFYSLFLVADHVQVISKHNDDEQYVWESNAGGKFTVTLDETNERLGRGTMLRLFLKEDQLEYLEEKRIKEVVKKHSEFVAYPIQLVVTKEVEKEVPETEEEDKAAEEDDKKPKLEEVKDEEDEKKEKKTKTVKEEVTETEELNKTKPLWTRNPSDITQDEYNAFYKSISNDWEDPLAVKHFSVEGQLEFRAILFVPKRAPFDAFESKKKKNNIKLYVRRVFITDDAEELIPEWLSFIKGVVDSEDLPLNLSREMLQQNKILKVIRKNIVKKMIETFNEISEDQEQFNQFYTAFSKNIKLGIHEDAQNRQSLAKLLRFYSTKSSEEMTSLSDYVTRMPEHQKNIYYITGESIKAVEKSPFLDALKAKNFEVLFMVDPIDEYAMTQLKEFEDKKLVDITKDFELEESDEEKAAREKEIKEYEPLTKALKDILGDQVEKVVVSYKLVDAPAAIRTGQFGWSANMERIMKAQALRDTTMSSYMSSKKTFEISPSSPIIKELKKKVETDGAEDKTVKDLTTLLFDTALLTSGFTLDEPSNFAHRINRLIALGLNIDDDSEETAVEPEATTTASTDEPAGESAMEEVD

CCOc1ccc(N2C(=O)c3cccnc3C2Nc2ccc(C)c(C)c2)cc1 (stereo not drawn)
IC50 (Hexokinase HKDC1): 77.1 µM (inactive) | IC50 (Hexokinase-1): > 80 µM (inactive)

CCN(c1ccccc1)S(=O)(=O)c1ccc(Cl)c(NC(=O)Nc2ccc(Cl)cc2C#N)c1
IC50 [1]: 8.98 µM (active) | AC50 (HEK293): 4.55 µM (active)

COc1ccc(CCNc2ncnc3sc(C)cc23)cc1OC
IC50 (Galanin receptor type 3): 0.43 µM (active) | IC50 [2]: > 80 µM (inactive) | EC50 [3]: > 180 µM (inactive) | EC50 [4]: > 150 µM (inactive) | EC50 [5]: > 120 µM (not active) | EC50 [6]: > 150 µM (inactive) | IC50 (Jurkat): 45.3 µM (inactive) | AC50 [7]: 0.796 µM (active) | EC50 [8]: > 120 µM (not active) | EC50 (cells): > 29.9 µM (inactive) | AC50 [9]: 0.739 µM (active) | IC50 [10]: 2.21 µM (active) | AC50 [11]: < 0.26 µM (active) | EC50 [12]: > 120 µM (not active) | AC50 (INS1 [13]): 0.902 µM (active) | EC50 [14]: 0.767 µM (active)

C[C@@H]1CN([C@@H](C)CO)C(=O)c2cccc(NC(=O)Nc3cccc4ccccc34)c2O[C@H]1CN(C)S(=O)(=O)c1ccc2c(c1)OCCO2
AC50 [15]: 33.7 µM (active) | AC50 ([15]; Rattus norvegicus): 57.6 µM (active) | AC50 (INS1 [16]): 4.79 µM (active) | AC50 (INS1 [17]): 83.8 µM (active) | AC50 (INS1 [18]): < 0.5 µM (active) | AC50 (INS1 [19]): 2.22 µM (active) | AC50 [20]: 6.7 µM (active)

CO[C@H]1[C@H](O)[C@H](O[C@H]2CC[C@@]3(C=O)[C@H](CC[C@@H]4[C@@H]3CC[C@]3(C)[C@@H](C5=CC(=O)OC5)CC[C@]43O)C2)O[C@@H](C)[C@@H]1O [PERUVOSIDE]
EC50 [21]: > 92.5 µM (inactive) | CC50 (Vero [22]): < 0.05 µM (active) | EC50 [23]: > 92.5 µM (inactive) | IC50 (Vero [24]): < 0.05 µM (active) | EC50 (Mu-type opioid receptor): > 92.5 µM (inactive) | EC50 [25]: > 0.1268 µM
